Measured values reported in patent publication US20210093637A1, “TOPICAL OINTMENT FORMULATIONS OF PDE-4 INHIBITOR AND THEIR USE IN TREATING SKIN CONDITIONS” (Dermavant Sciences GmbH, priority 2017, published 2021).
Where “and” joins values, the source holds several entries; their conditions need not be identical. Identical values can stand only once.

Columns and labels:
[1] = system: healthy Japanese male subjects; details: cited from earlier work
[2] = system: Japanese male subjects with AD; details: ointment 0.01% to 0.2%; cited from earlier work
[3] = single dermal application; stripped skin; non-fasted male rats; cited from earlier work
[4] = system: adults with mild to moderate AD; details: 0.2% ointment BID, 4 weeks; cited from earlier work
[5] = system: pediatric subjects aged 2 to 15 years with mild to moderate AD; details: 0.05% and 0.2% ointment for 2 weeks; cited from earlier work
[6] = Open-label Phase 1b study in pediatric patients (Example 7), plasma concentrations of RVT-501 and M11; type: in vivo, human; details: for subjects with measurable concentrations in plasma at one or more time points: PK Set n=25, LLOQ 0.25 ng/mL
Source text: During the Treatment Phase, subjects, their parent(s), or caregiver applied RVT-501 0.5% ointment to affected areas twice daily for 28 days. Subjects returned to the clinic at Week 1, Week 4, and follow-up for study assessments. On Day 1 and Weeks 2 and 3, subjects were contacted by phone to confirm their status, including any adverse events (AEs) and changes in concomitant medications.
Primary Endpoints: Frequency and severity of AE (local and systemic), Laboratory values, Vital signs, Plasma concentrations of RVT-501 and M11 metabolite.
Analysis Populations: All subjects enrolled in the study who had at least one application of study drug were included in the Safety Set. This was the population for the safety and efficacy analyses. The PK Set included all subjects who underwent plasma PK sampling and had evaluable PK assay results.
Pharmacokinetic Analyses: RVT-501 and M11 were measured in plasma by a validated assay. The number and percent of subjects with measurable concentration at each time point and at any time during the study were summarized. RVT-501 and M11 concentrations were summarized descriptively at each collection time point.

[7] = system: pediatric subjects with mild to moderate atopic dermatitis; assay: Phase 2 study in pediatric patients (Example 6), safety (adverse events); type: in vivo, human
Source text: Safety Endpoint: Frequency and severity of adverse events (AE; local and systemic).
Analysis Populations: All subjects enrolled in the study who had at least one application of investigational product were included in the Safety Set (SS). This was the population for the safety analyses.
Safety Analyses: The number and proportion of subjects with AEs were summarized by treatment, system organ classification, and preferred term for all adverse events, all adverse events considered by the investigator to be related to study drug, all serious adverse events (SAE), all Common Terminology Criteria for Adverse Events (CTCAE) Grade 3 or higher AEs, and all adverse events leading to study discontinuation. Summaries of AEs were presented separately for the Double-Blind and Open-Label Extension Phases.
Laboratory data were analyzed using descriptive summary statistics and changes from baseline. Categorical safety data were analyzed using frequency tables and, if applicable, shift tables. Vital signs were listed by subjects and summarized by treatment.

[8] = Stability of E6005 and M11 in human dried blood spots; type: physicochemical
Experimental: Stability: Following stability of E6005 and M11 in DBS was assessed at low and high concentrations using LQC and HQC samples (three replicates/concentration): bench-top stability for 7 days at room temperature, long-term frozen stability for 160 days […] below −15° C., and processed sample stability for 85 h at 4° C. To investigate impacts of high humidity on the stability, bench-top stability test was performed at room temperature with relative humidity of ca. 80%-84%. Samples were considered stable when % bias from the nominal concentrations was within ±15%.

[9] = Week 1 Hour 3, RVT-501 0.5% (N = 25)
[10] = Week 1 Hour 7, RVT-501 0.5% (N = 25)
[11] = Week 1 Pre-Dose, RVT-501 0.5% (N = 25)
[12] = Week 4 Pre-Dose, RVT-501 0.5%, N 23

subjects with measurable concentrations in plasma at one or more time points [6] | Number of subjects with measurable concentrations, (%) [6, 9] | Plasma concentration, Max [6, 9] | Plasma concentration, Mean [6, 9] | Plasma concentration, Median [6, 9] | Plasma concentration, Min [6, 9] | Number of subjects with measurable concentrations, (%) [6, 10] | Plasma concentration, Max [6, 10] | Plasma concentration, Mean [6, 10] | Plasma concentration, Median [6, 10] | Plasma concentration, Min [6, 10] | Number of subjects with measurable concentrations, (%) [6, 11] | Plasma concentration, Max [6, 11] | Plasma concentration, Mean [6, 11] | Plasma concentration, Median [6, 11] | Plasma concentration, Min [6, 11] | Number of subjects with measurable concentrations, (%) [6, 12] | Plasma concentration, Max [6, 12] | Plasma concentration, Mean [6, 12] | Plasma concentration, Median [6, 12] | SMILES | further results
40% | (24.0) % | 1860.00 ng/mL | 102.92 ng/mL | 0.0 ng/mL | 0 ng/mL | (32.0) % | 1470.00 ng/mL | 62.16 ng/mL | 0.0 ng/mL | 0 ng/mL | (24.0) % | 147.00 ng/mL | 6.00 ng/mL | 0.0 ng/mL | 0 ng/mL | (13.0) % | 0.45 ng/mL | 0.05 ng/mL | 0.0 ng/mL | CNc1nc(-c2cccc(NC(=O)c3ccc(C(=O)OC)cc3)c2)c2cc(OC)c(OC)cc2n1 [RVT-501, methyl N-[3-(6,7-dimethoxy-2-methylaminoquinazolin-4-yl)phenyl]terephthalamic acid] | skin or systemic AEs ([1]; 0.01%-0.2% ointment QD or BID up to 11 days, patch/photopatch): No significant skin or systemic AEs; skin irritation, adverse events, laboratory values, vital signs, ECG, ophthalmological findings ([1]; ointment 0.01% to 0.2%): no clinically-significant findings; skin irritation, adverse events, laboratory values, vital signs, ECG, ophthalmological findings [2]: no clinically-significant findings; radiolabelled RVT-501 in the skin application site 24 hours after administration, relative to levels after 30 minutes [3]: 75%; tolerability [4]: tolerability was good; adverse events attributable to the investigational product [5]: no adverse events considered attributable to the investigational product; mean plasma concentration of RVT-501 ([6]; Week 1, 3 hours post-dose): 102.92 ng/mL; plasma level of RVT-501, Subject 03002 ([6]; Week 1, 3 hours post-dose): 710.0 ng/mL; mean plasma concentration of RVT-501 ([6]; Week 1, 7 hours post-dose): 62.16 ng/mL; plasma level of RVT-501, Subject 03001 ([6]; Week 1, 7 hours post-dose): 80.3 ng/mL; mean plasma concentration of RVT-501 ([6]; Week 1 pre-dose): 6.00 ng/mL; plasma level of RVT-501, Subject 03007 ([6]; Week 1 pre-dose): 147.0 ng/mL; subjects with concentrations of RVT-501 ≥80 ng/ml ([6]; Week 1 visit): 16%; Plasma concentration, Min [6, 12]: 0 ng/mL; highest plasma concentration of RVT-501 ([6]; human, in vivo): 1 860 ng/mL; subjects with study-drug-related mild application site pruritus ([7]; Double-Blind Phase): 6.1%; safety and tolerability ([7]; human, in vivo): generally safe and well tolerated; subjects who experienced SAE (all deemed not related) ([7]; human, in vivo): two
40% | (28.0) % | 8.58 ng/mL | 0.61 ng/mL | 0.0 ng/mL | 0 ng/mL | (28.0) % | 23.40 ng/mL | 1.24 ng/mL | 0.0 ng/mL | 0 ng/mL | (24.0) % | 7.64 ng/mL | 0.57 ng/mL | 0.0 ng/mL | 0 ng/mL | (17.4) % | 1.07 ng/mL | 0.12 ng/mL | 0.0 ng/mL | CNc1nc(-c2cccc(NC(=O)c3ccc(C(=O)O)cc3)c2)c2cc(OC)c(OC)cc2n1 [Formulation M11, 4-((3-(6,7-dimethoxy-2-(methylamino)quinazolin-4-yl)phenyl)carbamoyl)benzoic acid] | highest plasma concentration of M11 (Subject 03007) ([6]; Week 1, 7 hours post-dose): 23.4 ng/mL and 23.40 ng/mL; mean plasma concentration of the M11 metabolite ([6]; Week 1, 7 hours post-dose): 1.24 ng/mL; Plasma concentration, Min [6, 12]: 0 ng/mL; mean plasma concentration of the M11 metabolite ([6]; all time points except 7 hours post-dose at Week 1): below 1 ng/ml; % bias ([8]; Bench-top, after 7 days at RT, HQC (160 ng/mL)): 2.5%; % bias ([8]; Bench-top, after 7 days at RT, LQC (3 ng/mL)): 6.0%; % bias ([8]; In processed samples, after 85 h at 4° C., HQC (160 ng/mL)): 0.2%; % bias ([8]; In processed samples, after 85 h at 4° C., LQC (1 ng/mL)): 5.9%; % bias ([8]; Long-term, after 160 days at RT, HQC (160 ng/mL)): 9.4%; % bias ([8]; Long-term, after 160 days at RT, LQC (3 ng/mL)): 0.3%; % bias ([8]; Long-term, after 160 days below −15° C., HQC (160 ng/mL)): −1.3%; % bias ([8]; Long-term, after 160 days below −15° C., LQC (3 ng/mL)): −1.3%; % bias ([8]; Under high humidity, after 7 days at humidity 80-84%, HQC (160 ng/mL)): −12.5%; % bias ([8]; Under high humidity, after 7 days at humidity 80-84%, LQC (3 ng/mL)): −2.3%
